Laboratory results: article PMC5690597, “Suppression and resolution of autoimmune arthritis by rhesus θ-defensin-1, an immunomodulatory macrocyclic peptide” (PLoS ONE, 2017)
Bridge positions count the residues as written; N and C are the ends. Peptide text beside a SMILES is read from it.

Key:
ADAM10 = ADAM10 (Homo sapiens, UniProt O14672); test: biochemical
Method: (§1) RTD-1 was analyzed for enzymatic inhibition against zinc metalloproteases ADAM17, ADAM10, matrix metalloproteases (MMPs) 1, 2, 3, 8, 9, 13, and 14, and cysteine cathepsins (Cats) B, C, H, K, L, S, and V (Table 1). ADAM10 and ADAM17 activities were measured by release of fluorogenic peptides cleaved from pro-TNF (R&D Systems, Minneapolis, MN). ADAM10 was diluted to 0.05 μg/ml and ADAM17 to 0.1 μg/ml with 25 mM TRIS, 2.5 μM ZnCl2, 0.005% Brij35, pH 9.0 and incubated with 0 to 3 μg/ml RTD-1 dissolved in 0.01% HOAc. Assay was initiated by addition of substrate (10 μM final) and enzymatic activity measured at 37°C (ADAM10) or 22°C (ADAM17) every 30 seconds for 1 h in a SpectraMax M5e fluorometer (Molecular Devices, Sunnyvale, CA) with 320 nm excitation and 405 nm emission.
(§2) Inhibition of MMPs by RTD-1 was performed as described, incubating each enzyme with 0–100 μg/ml of RTD-1. IC50 values were calculated by GraphPad Prism 5.01 (GraphPad Software, San Diego, CA) utilizing a non-linear curve fit of log [inhibitor] versus response with variable slope.

ADAM17 = ADAM17 (Homo sapiens, UniProt P78536); test: biochemical
Method: as §1, §2

Cathepsin B = Cathepsin B (Homo sapiens, UniProt P07858); test: biochemical
Method: (§3) RTD-1 inhibition of Cat B (BPS Bioscience, San Diego, CA) and Cats C, H, K, L, S, and V (R & D Systems) was analyzed in a 96 well format with enzyme-specific substrates per manufacturer’s instructions and as described in Table 1. The activity of each enzyme was determined in the presence of 0 to 50 μg/ml RTD-1.
as §2

Cathepsin C = Cathepsin C (Homo sapiens, UniProt P53634); test: biochemical
Method: as §3, §2

Cathepsin H = Cathepsin H (Homo sapiens, UniProt P09668); test: biochemical
Method: as §3, §2

Cathepsin L = Cathepsin L (Homo sapiens, UniProt P07711); test: biochemical
Method: as §3, §2

Cathepsin S = Cathepsin S (Homo sapiens, UniProt P25774); test: biochemical
Method: as §3, §2

anti-RTD-1 Ig = test: RTD-1 immunogenicity analysis (dot immunoblot); assay type: in vivo, DA and Sprague Dawley rats; conditions: 8–42 s.c. injections of 5 mg/kg; serum or plasma
Method: Adult DA or Sprague-Dawley rats were challenged s.c. with 5 mg/kg RTD-1 every day (15–42 injections), or every other day (8 injections). Several animals were boosted 2 months later, prior to serum or plasma collection. Immune responses were analyzed by dot blot on nitrocellulose membranes as described in legend to the figure.

[1] = test system: IL-6 production by fibroblast-like synoviocytes (FLS); test: Expression of IL-6 by stimulated FLS; assay type: cell-based, DA rat; conditions: RTD-1 10 μg/ml; TNFα or IL-1β 3 or 10 ng/ml; 24 h; ELISA; n = 12, 3 experiments
Method: (§4) Fibroblast-like synoviocytes (FLS) were isolated by enzymatic digestion of the synovial tissue from DA rats with PIA as previously described. Cells were washed and suspended in DMEM supplemented with 10% fetal bovine serum (Gibco, Grand Island, NY), 30 mg/ml L-glutamine (Sigma), 250 μg/ml amphotericin B (Sigma), and […] gentamicin (Gibco). After overnight culture, non-adherent cells were removed and adherent cells were cultured to approximately 70–90% confluence and passaged following detachment with 0.25% trypsin-EDTA for 3 min at 37°C. All experiments were performed with FLS after at least four passages.
FLS were cultured in 12-well plates at 4–6 × 10^4 cells/well for 24 h (viability > 95% by trypan blue staining). Medium was replaced and FLS were incubated with TNFα or IL-1β at final concentrations of 3 or 10 ng/ml plus RTD-1 (10 μg/ml in 0.01% acetic acid (HOAc)) or vehicle alone. After 24 h incubation, FLS culture supernatants were removed, clarified by centrifugation, and analyzed for IL-6 by ELISA (Invitrogen, Carlsbad, CA).

FLS from PIA rats = test: FLS invasion assay (Matrigel-coated transwell); assay type: cell-based; conditions: RTD-1 0.1 μg/ml; 24 h; 7 different rat DA FLS cell lines, mean
Method: as §4
FLS invasiveness was assayed in vitro using Matrigel-coated inserts in a transwell system (Becton, Dickinson and Company, Franklin Lakes, NJ) as previously described. Briefly, DA rat FLS (70–80% confluent) isolated as described above were suspended at 2.0 × 10^4 cells/well in serum-free DMEM. Cells were placed in the upper compartment of the Matrigel-coated inserts to which RTD-1 was added to final concentrations of 0.1, 1, or 10 μg/ml. The lower compartment contained complete medium with 10% FBS and plates were incubated at 37°C. […] The opposite side of the insert was stained with Crystal Violet (Sigma) and the total number of invading cells was counted at 100X magnification. […]

FLS = conditions: RTD-1 0–30 μg/ml; all samples; LDH release
Method: FLS were seeded at 3 × 10^3 cells/well in a 96-well TC treated plate (Greiner). Cells were allowed to adhere for 18 h and medium was replaced prior to addition of peptide or vehicle. RTD-1 was added to wells at final concentrations of 0–30 μg/ml in culture medium and incubated for 0, 24, or 48 h at 37°C in 5% CO2. FLS cell number was determined by DNA staining using CyQuant Cell Proliferation Assay Kit (Invitrogen) per manufacturer’s instructions. Cellular toxicity was determined by measuring the release of lactate dehydrogenase (LDH) using a CytoTox 96 Cytotoxicity Assay (Promega Bio Sciences, San Luis Obispo, CA) in FLS supernatants. All assays were performed with ≥ 7 replicates.

[2] = no method or data given
[3] = administered subcutaneously; this study and ref 9
[4] = cited from earlier work

Sequence of Cathepsin S (P25774 115-331, species assumed): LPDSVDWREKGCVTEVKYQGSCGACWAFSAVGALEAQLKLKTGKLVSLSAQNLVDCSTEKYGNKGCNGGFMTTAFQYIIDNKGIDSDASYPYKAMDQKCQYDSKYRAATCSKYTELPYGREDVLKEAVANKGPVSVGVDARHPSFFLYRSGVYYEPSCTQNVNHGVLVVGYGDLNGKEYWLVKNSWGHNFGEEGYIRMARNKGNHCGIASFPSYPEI
Sequence of Cathepsin H (P09668 98-335, species assumed): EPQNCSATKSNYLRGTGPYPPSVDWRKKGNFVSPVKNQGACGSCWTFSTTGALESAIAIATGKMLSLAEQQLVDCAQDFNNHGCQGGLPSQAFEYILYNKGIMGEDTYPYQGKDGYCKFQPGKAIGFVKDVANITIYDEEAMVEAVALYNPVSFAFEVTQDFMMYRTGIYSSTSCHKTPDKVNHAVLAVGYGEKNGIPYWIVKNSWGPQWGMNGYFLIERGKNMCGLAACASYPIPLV
Sequence of Cathepsin C (P53634 25-463, species assumed): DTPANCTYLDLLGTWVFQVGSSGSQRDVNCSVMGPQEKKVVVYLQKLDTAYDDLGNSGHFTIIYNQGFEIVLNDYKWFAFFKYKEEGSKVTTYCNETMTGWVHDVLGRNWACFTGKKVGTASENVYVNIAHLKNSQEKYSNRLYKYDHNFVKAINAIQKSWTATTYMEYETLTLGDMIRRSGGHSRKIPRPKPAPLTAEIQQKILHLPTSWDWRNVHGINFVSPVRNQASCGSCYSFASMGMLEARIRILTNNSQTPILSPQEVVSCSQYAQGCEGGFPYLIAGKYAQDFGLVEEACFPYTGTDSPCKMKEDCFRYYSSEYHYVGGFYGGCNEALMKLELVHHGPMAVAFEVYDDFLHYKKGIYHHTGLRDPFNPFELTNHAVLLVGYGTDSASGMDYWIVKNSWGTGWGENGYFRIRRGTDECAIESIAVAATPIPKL
Sequence of Cathepsin L (P07711 114-333, species assumed): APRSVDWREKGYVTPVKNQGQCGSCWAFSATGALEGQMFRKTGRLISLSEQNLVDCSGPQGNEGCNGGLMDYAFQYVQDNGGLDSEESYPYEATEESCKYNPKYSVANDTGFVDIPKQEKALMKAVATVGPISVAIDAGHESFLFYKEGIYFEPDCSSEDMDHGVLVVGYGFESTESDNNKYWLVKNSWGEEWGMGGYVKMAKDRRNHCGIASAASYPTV
Sequence of ADAM10 (O14672 214-748, species assumed): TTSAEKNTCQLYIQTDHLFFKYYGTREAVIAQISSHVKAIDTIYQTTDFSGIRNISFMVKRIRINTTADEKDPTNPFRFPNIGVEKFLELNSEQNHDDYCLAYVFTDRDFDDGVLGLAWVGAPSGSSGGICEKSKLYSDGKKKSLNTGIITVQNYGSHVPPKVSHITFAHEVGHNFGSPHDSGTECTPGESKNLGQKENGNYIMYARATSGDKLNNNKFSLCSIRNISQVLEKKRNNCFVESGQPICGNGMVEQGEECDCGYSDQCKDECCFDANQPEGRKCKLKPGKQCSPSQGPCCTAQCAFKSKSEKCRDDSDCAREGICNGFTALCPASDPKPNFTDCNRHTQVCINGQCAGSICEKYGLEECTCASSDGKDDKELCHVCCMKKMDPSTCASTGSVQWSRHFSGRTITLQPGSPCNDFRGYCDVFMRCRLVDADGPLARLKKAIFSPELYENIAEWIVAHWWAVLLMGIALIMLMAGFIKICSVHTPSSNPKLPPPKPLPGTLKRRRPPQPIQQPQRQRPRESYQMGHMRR
Sequence of ADAM17 (P78536 215-824, species assumed): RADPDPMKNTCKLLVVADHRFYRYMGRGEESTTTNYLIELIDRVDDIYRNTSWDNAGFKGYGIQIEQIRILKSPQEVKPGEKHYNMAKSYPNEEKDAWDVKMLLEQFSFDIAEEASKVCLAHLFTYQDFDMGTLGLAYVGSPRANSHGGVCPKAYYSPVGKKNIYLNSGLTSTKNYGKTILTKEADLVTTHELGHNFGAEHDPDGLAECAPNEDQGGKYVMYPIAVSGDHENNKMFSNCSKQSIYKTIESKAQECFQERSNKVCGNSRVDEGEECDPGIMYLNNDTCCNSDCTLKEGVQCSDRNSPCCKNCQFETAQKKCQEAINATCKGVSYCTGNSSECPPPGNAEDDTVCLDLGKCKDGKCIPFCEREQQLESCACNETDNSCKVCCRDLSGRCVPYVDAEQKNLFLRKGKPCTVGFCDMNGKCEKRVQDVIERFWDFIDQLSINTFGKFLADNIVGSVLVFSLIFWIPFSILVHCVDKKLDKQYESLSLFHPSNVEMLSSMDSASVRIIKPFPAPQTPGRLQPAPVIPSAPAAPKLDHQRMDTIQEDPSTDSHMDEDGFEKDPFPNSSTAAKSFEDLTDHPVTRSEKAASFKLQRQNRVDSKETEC

CC[C@H](C)[C@@H]1NC(=O)[C@@H]2CSSC[C@H](NC(=O)[C@H](CCCNC(=N)N)NC(=O)[C@@H]3CSSC[C@H](NC1=O)C(=O)N[C@@H]([C@@H](C)O)C(=O)N[C@@H](CCCNC(=N)N)C(=O)NCC(=O)N[C@@H](Cc1ccccc1)C(=O)N3)C(=O)N[C@@H](CC(C)C)C(=O)N[C@H]1CSSC[C@H](NC(=O)[C@H](C(C)C)NC(=O)CNC(=O)[C@H](CCCNC(=N)N)NC(=O)[C@H](CCCNC(=N)N)NC1=O)C(=O)N[C@@H](CCCNC(=N)N)C(=O)N2 [RTD-1, rhesus θ-defensin 1] (cyclo(GFCRCLCRRGVCRCICTR); disulfide 3-16, 5-14, 7-12)
IC50 (ADAM10): 450 ± 200 nM
IC50 (ADAM17): 110 ± 40 nM
IC50 (Cathepsin B): 1000 ± 100 nM
IC50 (Cathepsin C): 3700 ± 600 nM
IC50 (Cathepsin H): > 50000 nM
IC50 (Cathepsin L): 1400 ± 300 nM
IC50 (Cathepsin S): > 50000 nM
humoral response (anti-RTD-1 Ig) by dot immunoblot (anti-RTD-1 Ig): No anti-RTD-1 Ig was detected
reduction of IL-6 production by FLS [1]: 27.3–42.2%
inhibition of FLS invasion (FLS from PIA rats): 50%
cell viability in proliferation assay (FLS): ≥ 98%
stability in rat plasma [2]: highly stable
tolerability [3]: well tolerated
stability in human plasma [4]: highly stable
